The assay addresses T1, DrOTOP1 G130W/A274W (Danio rerio, UniProt Q7ZWK8, A274W/G130W).
T1 construct: A previously generated codon-optimized full-length DrOTOP1[8]; (UniProt: Q7ZWK8) construct; expressed in transfected cells; host or cells: HEK-293 (CRL-1573, ATCC)
T1 sequence (Q7ZWK8 1-586 G130W/A274W): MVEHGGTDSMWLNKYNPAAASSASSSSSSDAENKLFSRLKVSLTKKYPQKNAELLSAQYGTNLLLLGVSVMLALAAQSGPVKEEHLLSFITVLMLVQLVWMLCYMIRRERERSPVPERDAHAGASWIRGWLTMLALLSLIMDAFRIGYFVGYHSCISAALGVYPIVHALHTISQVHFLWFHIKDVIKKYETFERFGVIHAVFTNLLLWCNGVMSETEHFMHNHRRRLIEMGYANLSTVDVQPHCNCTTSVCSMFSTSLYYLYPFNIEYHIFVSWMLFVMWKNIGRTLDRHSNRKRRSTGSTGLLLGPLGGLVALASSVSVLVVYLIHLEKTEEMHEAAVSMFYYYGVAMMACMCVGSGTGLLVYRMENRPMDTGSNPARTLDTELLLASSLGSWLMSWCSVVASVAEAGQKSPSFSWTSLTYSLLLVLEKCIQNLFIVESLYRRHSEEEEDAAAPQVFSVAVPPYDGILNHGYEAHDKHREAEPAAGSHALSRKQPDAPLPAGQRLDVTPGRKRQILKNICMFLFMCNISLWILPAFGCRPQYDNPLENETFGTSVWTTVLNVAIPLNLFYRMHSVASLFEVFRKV
As to the kind of experiment: Whole-cell patch-clamp, inhibition of acid-evoked currents, DrOTOP1 G130W/A274W. It counts as cell-based, zebrafish (Danio rerio). How it is done: Given our limited success in identifying mutations of the central site that disrupt antagonism by C2.2, we tested whether mutations of the central site in a background of G130W (the most impactful outer site mutation) might unmask contributions of this site. Thus, we generated and tested double mutants of G130W with E384A, A274W, and A388W. […] We also measured the dose-dependence of inhibition by C2.2 for both G130W/A388W and G130W/E384A (Fig. 5I, J). […] G130W was tested in parallel to confirm that 100 and 300 μM C2.2 produced dose-dependent inhibition.
HEK-293 cells (CRL-1573, ATCC) were cultured in DMEM (Thermofisher 11995073) containing 10% fetal bovine serum (Life Technology 16000044) and Penicillin-Streptomycin (100 I.U./mL) and (100 µg/mL), respectively. Cells were transfected with WT DrOTOP1 or mutant DrOTOP1 channels in 35 mm petri dishes, with ~ 500 ng DNA and 2 μL TransIT-LT1 transfection reagent (Mirus Bio Corporation, Cat # MIR2300) following the manufacturer’s protocol. […]
Whole-cell patch-clamp recording was performed as previously described[6],[22],[25]. Recordings were made with an Axopatch 200B amplifier, digitized with a Digidata 1322a 16-bit data acquisition system, acquired with pClamp 8.2 and analyzed with Clampfit 10 (Molecular Devices). […]
All data are presented as mean ± SEM unless otherwise noted, and each data point represents an independent replicant. Inhibition of compounds was quantified as ((I2peak-I1)/(I2peak))*100, where I1 is the current immediately before wash-off and I2peak is the maximum recovered current (Supplementary Fig. 2). Hill coefficients were determined by the following equation: Y = Bmax*X^h/(Kd^h + X^h). Absolute IC50 was determined by the following equation: Fifty = (Top + Baseline)/2 Y = Bottom + (Top-Bottom)/(1 + ((Top-Bottom)/(Fifty-Bottom) − 1)*(AbsoluteIC50/X)^HillSlope). pH50 curves (Fig. 6G inset) were determined using the following equation: Y = Bottom + (Top-Bottom)/(1 + (EC/X)^HillSlope) where EC = EC50 control. […]
In general terms: The patch-clamp technique gives a direct electrical read-out from membranes.

Where “and” joins values, the source holds several entries; their conditions need not be identical. Equal values may be shown once.

Usually inhibition stands for the relative decrease from the control value, in per cent. Lower therefore signals little suppression. As to `C=C(C)COc1ccccc1NC(=O)c1nc[nH]c1C` [C2.2], the inhibition at 10 µM (10 µM, single cells or mean) came out at 8.49%.
Consider `O=C(/C(=N\O)c1ccccc1)c1ccccc1` [C11, benzil monoxime], for which, under “100 µM, single cells”, the Inhibition of currents was 67.5079% and 70.0684% and 78.866% and 74.4022%; the inhibition at 100 µM was 67.5%.

(Values after article PMC12549899 (Nature Communications, 2025).)
